Data on 2 molecules can be found in patent US7893037B2, “Pharmaceutical composition and process” (Roche Palo Alto LLC, priority 2007, dated 2011).

Data set [1] is described as follows: bioavailability / absorption of nucleoside and prodrug. The data set is classed as in vivo.
For the next data set, the system named is hepatitis C virus (HCV). The note with it: patients infected with hepatitis C virus.

As to `CC(C)C(=O)OC[C@@]1(N=[N+]=[N-])O[C@@H](n2ccc(N)nc2=O)[C@H](OC(=O)C(C)C)[C@@H]1OC(=O)C(C)C.Cl` [I, isobutyric acid (2R,3S,4R,5R)-5-(4-amino-2-oxo-2H-pyrimidin-1-yl)-2-azido-3,4-bis-iso-butyryloxy-tetrahydro-furan-2-ylmethyl ester; hydrochloride salt], in data set [1] (in vivo), the absorption entry is “efficiently absorbed”. Further, the “reversion of prodrug in plasma” value in data set [1] (plasma) is reported as “revert to I in plasma”. Also, the viral load result with hepatitis C virus (HCV) is listed as “decrease the viral load”.

For the molecule `[N-]=[N+]=NC1(CO)OC(n2ccc(N)nc2=O)C(O)C1O` (stereo not shown) [II, 4-Amino-1-(5-azido-3,4-dihydroxy-5-hydroxymethyl-tetrahydro-furan-2-yl)-1H-pyrimidin-2-one, reference compound], in data set [1] (in vivo), the bioavailability result is recorded as “insufficient bioavailabilty”.
